# Laboratory results from patent US4068074A, “Cephalosporin derivatives having at the 3-position of the cephem ring a heterocyclic thiomethyl group with a carboxy or sulfo group and at the 7-position of the cephem ring an α-heterocylic acylaminophenyl-acetamide group” (priority 1974, dated 1978).
# Read-outs that look alike come from different tables or passages of the source.
# Tests used:
# Salmonella typhi H901 W = experiment: MIC against bacteria (Table I), strain (9); format: cell-based; settings: Salmonella enterica, TYPHI
# Text: (§1) Now, for illustrating the excellent pharmacological effects of the compounds of this invention, the values of MIC (γ/ml.) of the compounds against various bacteria are shown in Table 1, in which the compounds of this invention used are shown by example numbers.
# (9) Salmonella typhi H901 W
# [1] = tested on: Pseudomonas aeruginosa 99 (Gentamycin resistant); experiment: MIC against bacteria (Table I), strain (5); format: cell-based; settings: (5) Pseudomonas aeruginosa 99 (Gentamycin resistant); read-out: MIC
# Text: as §1
# (5) Pseudomonas aeruginosa 99 (Gentamycin resistant)
# [2] = tested on: Bacillus subtilis ATCC 6633; experiment: MIC against bacteria (Table I), strain (14); format: cell-based; settings: ATCC6633; (14) Bacillus subtilis ATCC 6633; read-out: MIC
# Text: as §1
# (14) Bacillus subtilis ATCC 6633
# [3] = tested on: Micrococcus flavus ATCC 10240; experiment: MIC against bacteria (Table I), strain (15); format: cell-based; settings: ATCC10240
# Text: as §1
# (15) Micrococcus flavus ATCC 10240
# Proteus vulgaris OXK US = experiment: MIC against bacteria (Table I), strain (1); format: cell-based
# Text: as §1
# (1) Proteus vulgaris OXK US
# [4] = tested on: Staphylococcus aureus 209P; experiment: MIC against bacteria (Table I), strain (16); format: cell-based; settings: (16) Staphylococcus aureus 209P; read-out: MIC
# Text: as §1
# (16) Staphylococcus aureus 209P
# Proteus vulgaris 0X 19US = experiment: MIC against bacteria (Table I), strain (2); format: cell-based; settings: 0X19US; (2) Proteus vulgaris 0X 19US; read-out: MIC
# Text: as §1
# (2) Proteus vulgaris 0X 19US
# Staphylococcus Onuma = experiment: MIC against bacteria (Table I), strain (18); format: cell-based; settings: Staphylococcus
# Text: as §1
# (18) Staphylococcus Onuma
# [5] = tested on: Bacillus megatherium 10778; experiment: MIC against bacteria (Table I), strain (13); format: cell-based; settings: (13) Bacillus megatherium 10778; read-out: MIC
# Text: as §1
# [6] = tested on: Psuedomonas ovalis IMA 1002; experiment: MIC against bacteria (Table I), strain (6); format: cell-based; settings: (6) Psuedomonas ovalis IMA 1002; read-out: MIC
# Text: as §1
# (6) Psuedomonas ovalis IMA 1002
# Shigella sonnei II 37148 = experiment: MIC against bacteria (Table I), strain (12); format: cell-based; settings: II37148; (12) Shigella sonnei II 37148; read-out: MIC
# Text: as §1
# [7] = tested on: Pseudomonas aeruginosa ATCC 8689; experiment: MIC against bacteria (Table I), strain (4); format: cell-based; settings: ATCC8689; (4) Pseudomonas aeruginosa ATCC 8689; read-out: MIC
# Text: as §1
# (4) Pseudomonas aeruginosa ATCC 8689
# [8] = tested on: Klebsiella pneumoniae ATCC 10031; experiment: MIC against bacteria (Table I), strain (8); format: cell-based; settings: ATCC10031
# Text: as §1
# (8) Klebsiella pneumoniae ATCC 10031
# [9] = tested on: β-lactamase isolated from Pseudomonas aeruginosa 21; experiment: Resistance to β-lactamase: amount of unaltered test sample (Table 3); format: biochemical; settings: initial concentration 100γ/ml
# Text: For example, the relation between the amount (γ/ml) of an unaltered test sample at an initial concentration of the sample 100γ/ml against β-lactamase isolated from Pseudomonas aeruginosa 21 at various dilutions of the enzyme were investigated.
# Salmonella enteritidis = experiment: MIC against bacteria (Table I), strain (10); format: cell-based; settings: Salmonella enterica
# Text: as §1
# (10) Salmonella enteritidis
# [10] = tested on: Staphylococcus Shimanishi; experiment: MIC against bacteria (Table I), strain (17); format: cell-based
# Text: as §1
# (17) Staphylococcus Shimanishi
# [11] = tested on: Escherichia coli kauffmann 0-1; experiment: MIC against bacteria (Table I), strain (7); format: cell-based; settings: Escherichia coli
# Text: as §1
# (7) Escherichia coli kauffmann 0-1
# [12] = tested on: Proteus mirabilis IXM OM-19; experiment: MIC against bacteria (Table I), strain (3); format: cell-based; settings: IXMOM19; (3) Proteus mirabilis IXM OM-19; read-out: MIC
# Text: as §1
# (3) Proteus mirabilis IXM OM-19
# [13] = tested on: Shigella flexneri 2a 1675; experiment: MIC against bacteria (Table I), strain (11); format: cell-based; settings: 2A1675; (11) Shigella flexneri 2a 1675; read-out: MIC
# Text: as §1
# [14] = Residual antibacterial activity after incubation with 10% liver homogenate (Table 4); format: in vitro ADME, male Sprague-Dowley rat; settings: 10% rat liver homogenate
# Experimental: (§2) The relation between the reaction period of time and the antibacterial activity (residual activity, %) when these compounds are incubated with the plasma and the liver homogenate of a male Sprague-Dowley rat is shown in Table 4. The residual antibacterial activity was measured by a thin-layer cup method according to Bacillus subtilis ATCC 6633.
# B*Residual activity (%) when incubated with 10% liver homogenate.
# [15] = Residual antibacterial activity after incubation with 90% plasma (Table 4); format: in vitro ADME, male Sprague-Dowley rat; settings: 90% rat plasma
# Experimental: as §2
# A*Residual activity (%) when incubated with 90% plasma.
# [16] = Solubility of salts in water (Table 2); format: physicochemical; settings: for Solubility (appearance of solution): sodium salt, in water
# Text: An advantage of the compounds of this invention is that the salts, for example, sodium salts of these compounds are readily soluble in water at pH of living bodies, which makes them suitable for injections at high concentration. The solubility of these compounds are illustrated in Table 2 together with a control example.
smiles,measurement,setting,value
"Cc1nnc(SCC2=C(C(=O)O)N3C(=O)[C@@H](NC(=O)Cn4cnnn4)[C@H]3SC2)s1 [Cephazolin, reference compound]",MIC,Salmonella typhi H901 W,1.56 µg/mL
same,MIC,[1],> 100 µg/mL
same,MIC,[2],0.19 µg/mL
same,MIC,"[3]; (15) Micrococcus flavus ATCC 10240, read-out: MIC",0.19 µg/mL
same,MIC,Proteus vulgaris OXK US; Proteus vulgaris,3.13 µg/mL
same,MIC,[4],0.19 µg/mL
same,MIC,Proteus vulgaris 0X 19US,25 µg/mL
same,MIC,Staphylococcus Onuma,1.56 µg/mL
same,MIC,[5],0.19 µg/mL
same,MIC,[6],> 100 µg/mL
same,MIC,Shigella sonnei II 37148,1.56 µg/mL
same,MIC,[7],> 100 µg/mL
same,MIC,[8]; Klebsiella pneumoniae,1.56 µg/mL
same,Amount of unaltered test sample,[9]; β-lactamase dilution ×2,0 µg/mL
same,Amount of unaltered test sample,[9]; β-lactamase dilution ×4,0 µg/mL
same,Amount of unaltered test sample,[9]; β-lactamase dilution ×8,0 µg/mL
same,Amount of unaltered test sample,[9]; β-lactamase dilution ×16,0 µg/mL
same,Amount of unaltered test sample,[9]; β-lactamase dilution ×32,0 µg/mL
same,Amount of unaltered test sample,[9]; β-lactamase dilution ×64,9.2 µg/mL
same,Amount of unaltered test sample,[9]; β-lactamase dilution ×128,21.5 µg/mL
same,Amount of unaltered test sample,[9]; β-lactamase dilution ×256,84.6 µg/mL
same,Amount of unaltered test sample,[9]; β-lactamase dilution ×512,96.7 µg/mL
same,Amount of unaltered test sample,[9]; β-lactamase dilution ×1024,100 µg/mL
same,MIC,Salmonella enteritidis; ENTERITIDIS,1.56 µg/mL
same,MIC,"[10]; (17) Staphylococcus Shimanishi, read-out: MIC",0.78 µg/mL
same,MIC,[11],1.56 µg/mL
same,MIC,[12],6.25 µg/mL
same,MIC,[13],1.56 µg/mL
"O=C(Cc1cccs1)N[C@@H]1C(=O)N2C(C(=O)[O-])=C(C[n+]3ccccc3)CS[C@H]12 [Cephaloridine, reference compound]",remaining at 0.25 h,"[14]; 10% liver homogenate, 15 minute, read-out: Residual activity",82.3%
same,remaining at 0.5 h,"[14]; 10% liver homogenate, 30 minute, read-out: Residual activity",86%
same,remaining at 1.5 h,"[14]; 10% liver homogenate, 90 minute, read-out: Residual activity",91.1%
same,Residual activity,[14]; 0 minute,100%
same,remaining at 0.25 h,"[15]; 90% plasma, 15 minute",97.2%
same,remaining at 0.5 h,"[15]; 90% plasma, 30 minute",89.5%
same,remaining at 1.5 h,"[15]; 90% plasma, 90 minute",72.2%
same,Residual activity,[15]; 0 minute,100%
O=C(O)CSc1cc(SCC2=C(C(=O)O)N3C(=O)[C@@H](NC(=O)[C@H](NC(=O)c4cnccc4O)c4ccccc4)[C@H]3SC2)ncn1 [Example 16],MIC,Salmonella typhi H901 W,1.56 µg/mL
same,MIC,[1],25 µg/mL
same,MIC,[2],0.19 µg/mL
same,MIC,[3]; Micrococcus flavus,3.13 µg/mL
same,MIC,"Proteus vulgaris OXK US; (1) Proteus vulgaris OXK US, read-out: MIC",< 0.09 µg/mL
same,solubility,"[16]; disodium salt, water, showing pH 7.4, read-out: Solubility: disodium salt dissolved in water in an amount of",> 200 mg/mL
same,MIC,[4],0.78 µg/mL
same,MIC,Proteus vulgaris 0X 19US,< 0.09 µg/mL
same,MIC,Staphylococcus Onuma,6.25 µg/mL
same,MIC,[5],0.39 µg/mL
same,MIC,[6],25 µg/mL
same,MIC,Shigella sonnei II 37148,6.25 µg/mL
same,MIC,[7],25 µg/mL
same,MIC,"[8]; (8) Klebsiella pneumoniae ATCC 10031, read-out: MIC",12.5 µg/mL
same,MIC,"Salmonella enteritidis; (10) Salmonella enteritidis, read-out: MIC",0.78 µg/mL
same,MIC,[10]; Staphylococcus,6.25 µg/mL
same,MIC,[11],6.25 µg/mL
same,MIC,[12],0.19 µg/mL
same,MIC,[13],3.13 µg/mL
"Cc1nnc(SCC2=C(C(=O)O)N3C(=O)[C@@H](NC(=O)[C@H](NC(=O)c4cnccc4O)c4ccccc4)[C@H]3SC2)s1 [Control sample, reference compound]",Solubility (appearance of solution),[16]; at 0.5%,clearly
same,Solubility (appearance of solution),[16]; at 1%,became slight turbid
same,Solubility (appearance of solution),[16]; at 5%,became turbid
same,Solubility (appearance of solution),[16]; at 10%,became thickly turbid
same,Solubility (appearance of solution),[16]; at 20%,gelled
